From PubChem BioAssay (NCI)
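In this assay, cells in 96-well plates receive the compound at five concentrations for 48 hours. Endpoints are linearly interpolated between the surrounding concentrations. Definition used: TGI = concentration required for complete inhibition of growth.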 *1 amine or outer side, *2 acyl side, *3 side chain or, on linkers, in order; H or OH if unused. Where a SMILES comes first, the peptide text is derived from it. Bridges are numbered along the chain shown (N, C = ends). Roman numbers before positions name the chains, in order. [ ]: non-standard residue; d: D form. Actinocin(9to1) = Cc1c2oc3c(C)ccc(C(=O)[*:1])c3nc-2c(C(=O)[*:2])c(N)c1=O; X48 = O=C1CC(C(=O)[*:2])N([*:1])C1; NMeV = CN[CH](C(=O)O)C(C)C; Sar = CNCC(=O)O

Experiments:
Assay in all cases: inhibition of tumour cell growth, NCI panel, 48 h
786-0 renal = tested on: 786-0 renal
A498 renal = tested on: A498 renal
A549 NSCLC = tested on: A549 NSCLC
ACHN renal = tested on: ACHN renal
CAKI-1 renal = tested on: CAKI-1 renal
CCRF-CEM leukemia = tested on: CCRF-CEM leukemia
COLO 205 colon = tested on: COLO 205 colon
DU-145 prostate = tested on: DU-145 prostate
EKVX NSCLC = tested on: EKVX NSCLC
HCC-2998 colon = tested on: HCC-2998 colon
HCT-116 colon = tested on: HCT-116 colon
HCT-15 colon = tested on: HCT-15 colon
HL-60(TB) leukemia = tested on: HL-60(TB) leukemia
HOP-62 NSCLC = tested on: HOP-62 NSCLC
HOP-92 NSCLC = tested on: HOP-92 NSCLC
HT29 colon = tested on: HT29 colon
IGROV1 ovarian = tested on: IGROV1 ovarian
K-562 leukemia = tested on: K-562 leukemia
LOX IMVI melanoma = tested on: LOX IMVI melanoma
M14 melanoma = tested on: M14 melanoma
MALME-3M melanoma = tested on: MALME-3M melanoma
MCF7 breast = tested on: MCF7 breast
MDA-MB-231 breast = tested on: MDA-MB-231 breast
MDA-MB-435 = tested on: MDA-MB-435
MDA-N = tested on: MDA-N
MOLT-4 leukemia = tested on: MOLT-4 leukemia
NCI-H226 lung = tested on: NCI-H226 lung
NCI-H23 lung = tested on: NCI-H23 lung
NCI-H460 lung = tested on: NCI-H460 lung
NCI/ADR-RES ovarian = tested on: NCI/ADR-RES ovarian
OVCAR-3 ovarian = tested on: OVCAR-3 ovarian
OVCAR-4 ovarian = tested on: OVCAR-4 ovarian
OVCAR-5 ovarian = tested on: OVCAR-5 ovarian
OVCAR-8 ovarian = tested on: OVCAR-8 ovarian
PC-3 prostate = tested on: PC-3 prostate
RPMI-8226 leukemia = tested on: RPMI-8226 leukemia
RXF 393 renal = tested on: RXF 393 renal
SF-295 CNS = tested on: SF-295 CNS
SF-539 CNS = tested on: SF-539 CNS
SK-MEL-2 melanoma = tested on: SK-MEL-2 melanoma
SK-MEL-28 melanoma = tested on: SK-MEL-28 melanoma
SK-MEL-5 melanoma = tested on: SK-MEL-5 melanoma
SK-OV-3 ovarian = tested on: SK-OV-3 ovarian
SN12C renal = tested on: SN12C renal
SNB-19 CNS = tested on: SNB-19 CNS
SR leukemia = tested on: SR leukemia
SW-620 colon = tested on: SW-620 colon
T-47D breast = tested on: T-47D breast
TK-10 renal = tested on: TK-10 renal
U251 CNS = tested on: U251 CNS
UACC-257 melanoma = tested on: UACC-257 melanoma
UO-31 renal = tested on: UO-31 renal
BT-549 breast = tested on: BT-549 breast
HS 578T breast = tested on: HS 578T breast
KM12 colon = tested on: KM12 colon
NCI-H522 lung = tested on: NCI-H522 lung
SF-268 CNS = tested on: SF-268 CNS
SNB-75 CNS = tested on: SNB-75 CNS
UACC-62 melanoma = tested on: UACC-62 melanoma

Cc1c2oc3c(C)ccc(C(=O)NC4C(=O)NC(C(C)C)C(=O)N5CC(=O)CC5C(=O)N(C)CC(=O)N(C)C(C(C)C)C(=O)OC4C)c3nc-2c(C(=O)NC2C(=O)NC(C(C)C)C(=O)N3CC(=O)CC3C(=O)N(C)CC(=O)N(C)C(C(C)C)C(=O)OC2C)c(N)c1=O (configuration not stated) (I: TV[X48][Sar][NMeV] / II: TV[X48][Sar][NMeV]; ester I:1-I:C, II:1-II:C; linker I:N-II:N via Actinocin(9to1); configuration not given here)
TGI (786-0 renal): > 1 µM
TGI (A498 renal): > 1 µM
TGI (A549 NSCLC): > 1 µM
TGI (ACHN renal): > 1 µM
TGI (CAKI-1 renal): > 1 µM
TGI (CCRF-CEM leukemia): > 1 µM
TGI (COLO 205 colon): > 1 µM
TGI (DU-145 prostate): > 1 µM
TGI (EKVX NSCLC): > 1 µM
TGI (HCC-2998 colon): > 1 µM
TGI (HCT-116 colon): > 1 µM
TGI (HCT-15 colon): > 1 µM
TGI (HL-60(TB) leukemia): > 1 µM
TGI (HOP-62 NSCLC): > 1 µM
TGI (HOP-92 NSCLC): > 1 µM
TGI (HT29 colon): > 1 µM
TGI (IGROV1 ovarian): > 1 µM
TGI (K-562 leukemia): > 1 µM
TGI (LOX IMVI melanoma): > 1 µM
TGI (M14 melanoma): > 1 µM
TGI (MALME-3M melanoma): > 1 µM
TGI (MCF7 breast): > 1 µM
TGI (MDA-MB-231 breast): > 1 µM
TGI (MDA-MB-435): > 1 µM
TGI (MDA-N): > 1 µM
TGI (MOLT-4 leukemia): > 1 µM
TGI (NCI-H226 lung): > 1 µM
TGI (NCI-H23 lung): > 1 µM
TGI (NCI-H460 lung): > 1 µM
TGI (NCI/ADR-RES ovarian): > 1 µM
TGI (OVCAR-3 ovarian): > 1 µM
TGI (OVCAR-4 ovarian): > 1 µM
TGI (OVCAR-5 ovarian): > 1 µM
TGI (OVCAR-8 ovarian): > 1 µM
TGI (PC-3 prostate): > 1 µM
TGI (RPMI-8226 leukemia): > 1 µM
TGI (RXF 393 renal): > 1 µM
TGI (SF-295 CNS): > 1 µM
TGI (SF-539 CNS): > 1 µM
TGI (SK-MEL-2 melanoma): > 1 µM
TGI (SK-MEL-28 melanoma): > 1 µM
TGI (SK-MEL-5 melanoma): > 1 µM
TGI (SK-OV-3 ovarian): > 1 µM
TGI (SN12C renal): > 1 µM
TGI (SNB-19 CNS): > 1 µM
TGI (SR leukemia): > 1 µM
TGI (SW-620 colon): > 1 µM
TGI (T-47D breast): > 1 µM
TGI (TK-10 renal): > 1 µM
TGI (U251 CNS): > 1 µM
TGI (UACC-257 melanoma): > 1 µM
TGI (UO-31 renal): > 1 µM

CC(=O)OC1CC(O)CC2=CCC3C4CCC(C(C)(O)C(O)CC5COC(=O)C5C)C4(C)CCC3C21C (configuration not stated)
TGI (786-0 renal): > 25 µM
TGI (A498 renal): > 25 µM
TGI (A549 NSCLC): > 25 µM
TGI (ACHN renal): > 25 µM
TGI (BT-549 breast): > 25 µM
TGI (CAKI-1 renal): > 25 µM
TGI (CCRF-CEM leukemia): > 25 µM
TGI (COLO 205 colon): > 25 µM
TGI (DU-145 prostate): > 25 µM
TGI (EKVX NSCLC): > 25 µM
TGI (HCC-2998 colon): > 25 µM
TGI (HCT-116 colon): > 25 µM
TGI (HCT-15 colon): > 25 µM
TGI (HL-60(TB) leukemia): 12.8 µM
TGI (HOP-62 NSCLC): > 25 µM
TGI (HOP-92 NSCLC): > 25 µM
TGI (HS 578T breast): > 25 µM
TGI (HT29 colon): > 25 µM
TGI (IGROV1 ovarian): > 25 µM
TGI (K-562 leukemia): > 25 µM
TGI (KM12 colon): > 25 µM
TGI (LOX IMVI melanoma): > 25 µM
TGI (M14 melanoma): > 25 µM
TGI (MCF7 breast): > 25 µM
TGI (MDA-MB-231 breast): > 25 µM
TGI (MDA-MB-435): > 25 µM
TGI (MDA-N): > 25 µM
TGI (MOLT-4 leukemia): > 25 µM
TGI (NCI-H226 lung): > 25 µM
TGI (NCI-H23 lung): > 25 µM
TGI (NCI-H460 lung): > 25 µM
TGI (NCI-H522 lung): > 25 µM
TGI (OVCAR-3 ovarian): > 25 µM
TGI (OVCAR-4 ovarian): > 25 µM
TGI (OVCAR-5 ovarian): > 25 µM
TGI (OVCAR-8 ovarian): > 25 µM
TGI (PC-3 prostate): > 25 µM
TGI (RPMI-8226 leukemia): > 25 µM
TGI (RXF 393 renal): > 25 µM
TGI (SF-268 CNS): > 25 µM
TGI (SF-295 CNS): > 25 µM
TGI (SF-539 CNS): > 25 µM
TGI (SK-MEL-2 melanoma): > 25 µM
TGI (SK-MEL-28 melanoma): > 25 µM
TGI (SK-MEL-5 melanoma): > 25 µM
TGI (SK-OV-3 ovarian): > 25 µM
TGI (SN12C renal): > 25 µM
TGI (SNB-19 CNS): > 25 µM
TGI (SNB-75 CNS): > 25 µM
TGI (SR leukemia): > 25 µM
TGI (SW-620 colon): > 25 µM
TGI (T-47D breast): > 25 µM
TGI (TK-10 renal): > 25 µM
TGI (U251 CNS): > 25 µM
TGI (UACC-257 melanoma): > 25 µM
TGI (UACC-62 melanoma): > 25 µM
TGI (UO-31 renal): > 25 µM

CC(NC(=O)C(N)Cc1ccc(O)cn1)C(=O)O (configuration not stated)
TGI (786-0 renal): > 100 µM
TGI (A498 renal): > 100 µM
TGI (A549 NSCLC): > 100 µM
TGI (ACHN renal): > 100 µM
TGI (BT-549 breast): > 100 µM
TGI (CAKI-1 renal): > 100 µM
TGI (CCRF-CEM leukemia): > 100 µM
TGI (COLO 205 colon): > 100 µM
TGI (DU-145 prostate): > 100 µM
TGI (EKVX NSCLC): > 100 µM
TGI (HCC-2998 colon): > 100 µM
TGI (HCT-116 colon): > 100 µM
TGI (HCT-15 colon): > 100 µM
TGI (HL-60(TB) leukemia): > 100 µM
TGI (HOP-62 NSCLC): > 100 µM
TGI (HOP-92 NSCLC): > 100 µM
TGI (HS 578T breast): > 100 µM
TGI (HT29 colon): > 100 µM
TGI (IGROV1 ovarian): > 100 µM
TGI (K-562 leukemia): > 100 µM
TGI (KM12 colon): > 100 µM
TGI (LOX IMVI melanoma): > 100 µM
TGI (MALME-3M melanoma): > 100 µM
TGI (MCF7 breast): > 100 µM
TGI (MDA-MB-231 breast): > 100 µM
TGI (MDA-MB-435): > 100 µM
TGI (MDA-N): > 100 µM
TGI (MOLT-4 leukemia): > 100 µM
TGI (NCI-H226 lung): > 100 µM
TGI (NCI-H23 lung): > 100 µM
TGI (NCI-H460 lung): > 100 µM
TGI (NCI-H522 lung): > 100 µM
TGI (NCI/ADR-RES ovarian): > 100 µM
TGI (OVCAR-3 ovarian): > 100 µM
TGI (OVCAR-4 ovarian): > 100 µM
TGI (OVCAR-5 ovarian): > 100 µM
TGI (OVCAR-8 ovarian): > 100 µM
TGI (PC-3 prostate): > 100 µM
TGI (RPMI-8226 leukemia): > 100 µM
TGI (RXF 393 renal): > 100 µM
TGI (SF-268 CNS): > 100 µM
TGI (SF-295 CNS): > 100 µM
TGI (SF-539 CNS): > 100 µM
TGI (SK-MEL-28 melanoma): > 100 µM
TGI (SK-MEL-5 melanoma): > 100 µM
TGI (SN12C renal): > 100 µM
TGI (SNB-19 CNS): > 100 µM
TGI (SR leukemia): > 100 µM
TGI (SW-620 colon): > 100 µM
TGI (TK-10 renal): > 100 µM
TGI (U251 CNS): > 100 µM
TGI (UACC-257 melanoma): > 100 µM
TGI (UO-31 renal): > 100 µM
